Where “and” joins values, the source holds several entries; their conditions need not be identical. Equal values may be shown once.
Columns and labels:
GABAA receptor = test: CNP-recorded membrane potential of HT-22 cells during pharmacological stimulation (GABA, bicuculline), current-clamp; format: cell-based, mouse
Experimental: Y-aminobutyric acid (GABA), a principal inhibitory neurotransmitter in the mammalian central nervous system which acts as an agonist for the membrane-bound GABAA receptor, was administered. When GABA binds to the GABAA receptor, the cell hyperpolarizes as a result of C1-ion influx due to the opening of the ligand-gated C1-ion channel. However, the hyperpolarization can be blocked by perfusing cells with bicuculline (BIC), a competitive antagonist for the GABAA receptor which binds to the GABAA receptor and prevents it from opening even in the presence of GABA.
FIG. 10A illustrates how an HT-22 cell responded when GABA was added to the cell bath (12 mM GABA in bath, arrow).
FIG. 10B represents the opposing membrane responses to such stimuli over time.

HT-22 cells = test: CNP-recorded membrane potential of HT-22 cells during ionic (K+) enrichment, current-clamp; format: cell-based, mouse; conditions: for depolarization of membrane potential: KCl added to cell bath; for time for cell to return to its RMP: after KCl
From the text: Because the cell membrane is highly permeable to potassium ions (K^+), an increase or decrease in extracellular K+ concentration will, respectively, cause a resting cell to depolarize (membrane potential becoming more positive) or hyperpolarize (membrane potential becoming more negative). Utilizing CNPs, variations in membrane potential were monitored over tens of minutes. FIG. 8A is a recording of membrane potential from an HT-22 cell during perfusion intervals with normal HBSS and K+-enriched HBSS (additional 5 mM K^+). […] After approximately 2 min at higher extracellular K^+, the cell was perfused with normal HBSS and the cell slowly returned to its RMP.
Next, a CNP was used to measure changes in membrane potential during repetitive extracellular administration of KCl [FIG. 8B]. After penetrating the cell, as indicated by the arrow in FIG. 8B, the CNP measured a stable RMP under normal HBSS perfusion (Emp=−68 mV). […] Under constant perfusion in normal HBSS, the membrane potential returned to its original value after […]. The results were reproducible with high fidelity.
FIG. 8C is a representation of potential variations as a function of time during the administration of HBSS and the varied K+-enrichment of HBSS (additional 5 and 15 mM K^+). […] As normal HBSS perfusion brought the bath back to its initial K+ concentration, the cell returned to its RMP in ˜90 seconds.
The mouse hippocampal cell line HT-22 was kindly provided by Dr. David Schubert (The Salk Institute, San Diego, Calif.). Cells were grown in Dulbecco's Modified Eagle Medium (DMEM, high glucose) supplemented with 10% fetal bovine serum (FBS) and 1% antibiotics. The cells were plated on 12 mm cover slips 48 hrs prior to the electrophysiology measurements. The cells on the cover slips were incubated in HBSS (with calcium and magnesium) at room temperature for 10 min prior to measurements. The cover slips were subsequently placed in an open diamond perfision bath (Warner Instruments Corp., RC-22C) positioned on an upright microscope (Nikon eclipse E600FN, 40× water-immersion lens, Burleigh Gibraltar fixed-stage platform) located atop a vibration-isolation table. Cells were routinely perfised with HBSS at a flow rate of 1.0 mllmin.
Membrane potential measurements were recorded with an Axon AxoClamp-2A amplifier equipped with a headstage for high resistance electrodes (Axon HS2-XO.OlMU) and Digidata 1322A digitizer (Axon Instruments/Molecular Devices, Sunnyvale, Calif.). Experimental protocols were controlled and data acquired by a personal computer using the Clampex 8.2 software (Axon Instruments). CNPs were inserted into a standard electrode holder until the metal wire of the holder came in contact with the inner carbon film of the CNP. A slight positive pressure was applied through the holder's perfixion port to keep external solution from filling the hollow CNP by capillarity. A micromanipulator (Narishige MHW-3) was used to manipulate and position the CNP electrodes during the electrophysiology measurements. All the electrical measurements were carried out versus an AgIAgCl reference electrode submerged in HBSS in discontinuous current clamp @CC) mode, at zero current, with no capacitance compensation. The CNP potential was nulled (+I-2 mV) with the amplifier offset potential during immersion in HBSS before all electrical measurements. Recorded electrical measurements were not adjusted to compensate for differences in extracellular and intracellular junction potentials.

| Compound | hyperpolarization from the RMP (GABAA receptor; 12 mM GABA in bath, normal HBSS perfusion, FIG. 10A, FIG. 10B) | time for cell to return to its RMP (GABAA receptor; after 12 mM GABA, constant HBSS perfusion) | depolarization of membrane potential (HT-22 cells; additional 5 mM K+, RMP -57 mV, FIG. 8C) [mV] | depolarization of membrane potential (HT-22 cells; additional 15 mM K+, RMP -57 mV, FIG. 8C, FIG. 10B) | depolarization of membrane potential (HT-22 cells; additional 25 mM K+, RMP -68 mV, FIG. 8B) [mV] | time for cell to return to its RMP (HT-22 cells; additional 5 mM K+, normal HBSS perfusion) [s] | time for cell to return to its RMP (HT-22 cells; additional 15 mM K+, HBSS perfusion) |
| --- | --- | --- | --- | --- | --- | --- | --- |
| NCCCC(=O)O [GABA, Y-aminobutyric acid] | 10 mV and 12 mV | 30 s and 60 s | – | – | – | – | – |
| [Cl-].[K+] [KCl, Potassium chloride] | – | – | 10 | 30 mV and 25 mV | 40 | ~90 | ~90 s and 60 s |

Source: patent US8702927B2, “Multiple-electrode and metal-coated probes” (The Trustees Of The University Of Pennsylvania, priority 2009, dated 2014)
